Converted amounts (≈) assume the structure as drawn. “Also recorded” adds a separate entry of the source. Where two headings read alike, the source gives them in different places. Peptide text beside a SMILES is read from it.
Experiments:
Type in all cases: cell-based
[1] = tested on: ESKAPE bacteria, L. monocytogenes and S. enterica; assay: Antimicrobial activity in PPB, summarised over the tested bacteria; settings: for MBC, range over the tested bacteria as summarised in the text: 3 h in PPB, carbenicillin range excludes L. monocytogenes, peptide G range excludes E. faecalis
Source text: (§1) The pathogenic bacterial strains obtained from the ATCC (United States) and NCTC (National Collection of Type Cultures – England) were the Gram-positive: Enterococcus faecalis (ATCC 29212), Staphylococcus aureus (HNCMO112011), Listeria monocytogenes (ATCC 19111) and the Gram-negative: Pseudomonas aeruginosa (ATCC 27853), Escherichia coli (ATCC 8739), Salmonella enterica (ATCC 13076), Klebsiella pneumoniae (NCTC 13440), Acinetobacter baumannii (ATCC 17978).
(§2) Overnight bacterial cultures grown in LB were diluted and grown to OD600 = 0.2–0.6 at 37°C with shaking. After harvesting and washing bacteria in PPB, the suspensions were adjusted to OD600 = 0.1 corresponding to ∼10^7 bacteria/mL. Antimicrobial activity of the peptides and the antibiotics was determined in PPB in 96 well microplates using 10 μL bacterial suspension and 90 μL of the 2-fold serial dilutions of peptides or antibiotics. Peptides were tested from 25 μM to 0.125 μM whereas the antibiotics; carbenicillin (Cb) from Duchefa Biochemie (Prod.No. C0109.0025) and levofloxacin (Lvx) from Sigma-Aldrich (Prod.No. 28266-10MG-F) from […] to 0.1 μM. The microplates were incubated for 3 h at 37°C with 250 rpm shaking and then 5 μl from each sample was placed on LB agar and the growth of bacteria was monitored after overnight incubation at 37°C. The lowest concentration of the antimicrobial agents, which completely eliminated viable bacteria was the minimal bactericidal concentration (MBC).

[2] = tested on: Salmonella enterica (ATCC 13076); assay: microbe, parasite or virus in culture; settings: 3 h treatment in PPB (20 mM potassium-phosphate buffer, pH 7.4), 37°C, then plating on LB agar, read-out: Minimal bactericidal concentration (MBC) S. e.
Source text: as §1, §2

[3] = tested on: Staphylococcus aureus (HNCMO112011); assay: microbe, parasite or virus in culture; settings: 3 h treatment in PPB (20 mM potassium-phosphate buffer, pH 7.4), 37°C, then plating on LB agar, read-out: Minimal bactericidal concentration (MBC) S. a.
Source text: as §1, §2

[4] = tested on: Acinetobacter baumannii (ATCC 17978); assay: microbe, parasite or virus in culture; settings: 3 h treatment in PPB (20 mM potassium-phosphate buffer, pH 7.4), 37°C, then plating on LB agar, read-out: Minimal bactericidal concentration (MBC) A. b.
Source text: as §1, §2

[5] = tested on: Enterococcus faecalis (ATCC 29212); assay: microbe, parasite or virus in culture; settings: 3 h treatment in PPB (20 mM potassium-phosphate buffer, pH 7.4), 37°C, then plating on LB agar, read-out: Minimal bactericidal concentration (MBC) E. f.
Source text: as §1, §2

[6] = tested on: Pseudomonas aeruginosa (ATCC 27853); assay: microbe, parasite or virus in culture; settings: 3 h treatment in PPB (20 mM potassium-phosphate buffer, pH 7.4), 37°C, then plating on LB agar, read-out: Minimal bactericidal concentration (MBC) P. a.
Source text: as §1, §2

[7] = tested on: Klebsiella pneumoniae (NCTC 13440); assay: microbe, parasite or virus in culture; settings: 3 h treatment in PPB (20 mM potassium-phosphate buffer, pH 7.4), 37°C, then plating on LB agar, read-out: Minimal bactericidal concentration (MBC) K. p.
Source text: as §1, §2

[8] = tested on: Listeria monocytogenes (ATCC 19111); assay: microbe, parasite or virus in culture; settings: 3 h treatment in PPB (20 mM potassium-phosphate buffer, pH 7.4), 37°C, then plating on LB agar, read-out: Minimal bactericidal concentration (MBC) L. m.
Source text: as §1, §2

[9] = tested on: Escherichia coli (ATCC 8739); assay: microbe, parasite or virus in culture; settings: 3 h treatment in PPB (20 mM potassium-phosphate buffer, pH 7.4), 37°C, then plating on LB agar, read-out: Minimal bactericidal concentration (MBC) E. c.
Source text: as §1, §2

[10] = tested on: human melanoma A375 cells; assay: XTT cell proliferation (cytotoxicity) assay; settings: 72 h treatment, OD450, three biological repeats
Method: The cytotoxicity of peptides X1-NCR247C and NCR247C-X2 was determined against the human melanoma A375 cells with XTT cell proliferation assay kit (PanReac Applichem) and a benchtop microplate reader (Multiskan RC, Thermo Labsystems) according to the manufacturers’ instructions. A375 human melanoma cell line was obtained from ATCC and maintained in DMEM (Lonza) supplemented by 10% FBS (Euroclone) in a humidified incubator at 37°C and 5% CO2. A375 cells were seeded to 96-well plates (4,000 cells/well) and treated with the peptides for 72 h. Cells without peptides served as negative control and the blank sample was the medium. Reduction of the tetrazolium salt XTT by the viable cells to the orange colored compounds of formazan was measured at OD450. The XTT assay was performed in three biological repeats.

Acinetobacter baumannii = settings: MHB; for MBC in Mueller Hinton Broth, panel (A), A. b.: 3 h treatment; for MBC in Mueller Hinton Broth, panel (A), A. b. / MBC in Mueller Hinton Broth, panel (B), A. b.: 37°C (panel assigned); for MIC in Mueller Hinton Broth, panel (C), A. b.: 20 h cultivation, 37°C, optical density (panel assigned); for MBC in Mueller Hinton Broth, panel (B), A. b.: 20 h treatment
Source text: as §1
(§3) Ca^2+ and Mg^2+ can inhibit the antimicrobial activity of cationic peptides, therefore the MBC and MIC values were also determined in MHB, which unlike PPB contains divalent cations and allows growth of bacteria. Bacteria were grown and prepared similarly except that bacteria were resuspended in MHB. 10 μl of bacteria OD600 = 0.1, supplemented with 45 μl MHB and 45 μl of 2-fold dilution series of peptides, were cultivated for 3 and 20 h at 37°C with shaking. Optical density of each sample was measured (Hidex Sense Microplate Reader with Plate Reader Software version 5064) and 5 μl was placed on LB agar plates after 3 and 20 h treatment. The minimal inhibitory concentration (MIC) corresponded to the lowest concentration, which inhibited growth.

Staphylococcus aureus = settings: MHB; for MBC in Mueller Hinton Broth, panel (A), S. a.: 3 h treatment; for MBC in Mueller Hinton Broth, panel (A), S. a. / MBC in Mueller Hinton Broth, panel (B), S. a.: 37°C (panel assigned); for MIC in Mueller Hinton Broth, panel (C), S. a.: 20 h cultivation, 37°C, optical density (panel assigned); for MBC in Mueller Hinton Broth, panel (B), S. a.: 20 h treatment
Source text: as §1, §3

Escherichia coli = settings: MHB; for MBC in Mueller Hinton Broth, panel (A), E. c.: 3 h treatment; for MBC in Mueller Hinton Broth, panel (A), E. c. / MBC in Mueller Hinton Broth, panel (B), E. c.: 37°C (panel assigned); for MIC in Mueller Hinton Broth, panel (C), E. c.: 20 h cultivation, 37°C, optical density (panel assigned); for MBC in Mueller Hinton Broth, panel (B), E. c.: 20 h treatment
Source text: as §1, §3

[11] = Acinetobacter baumannii, ATCC17978
[12] = Enterococcus faecalis, ATCC29212
[13] = Pseudomonas aeruginosa, ATCC27853
[14] = Klebsiella pneumoniae, NCTC13440
[15] = Listeria monocytogenes, ATCC19111

Compound	MBC, range over the tested bacteria as summarised in the text [1]	MBC ([2]; Salmonella enterica, ATCC13076)	MBC ([3]; Staphylococcus aureus)	MBC [4, 11]	MBC [5, 12]	MBC [6, 13]	MBC [7, 14]	MBC [8, 15]	MBC ([9]; Escherichia coli, ATCC8739)	MBC [2]	MBC [3]	MBC [4]	MBC [5]	MBC [6]	MBC [7]	MBC [8]	MBC [9]	MBC in Mueller Hinton Broth, panel (A), A. b. (Acinetobacter baumannii)	MIC in Mueller Hinton Broth, panel (C), A. b. (Acinetobacter baumannii)	MBC in Mueller Hinton Broth, panel (B), A. b. (Acinetobacter baumannii)	further results
CC1(C)S[C@@H]2[C@H](NC(=O)C(C(=O)O)c3ccccc3)C(=O)N2[C@H]1C(=O)O (stereo partly drawn) [Cb, carbenicillin, reference compound]	640 to 10240 µM	640 µM (≈ 242 µg/mL)	640 µM (≈ 242 µg/mL)	5120 µM (≈ 1940 µg/mL)	5120 µM (≈ 1940 µg/mL)	10200 µM (≈ 3870 µg/mL)	> 10200 µM	80 µM (≈ 30.3 µg/mL)	1280 µM (≈ 484 µg/mL)	–	–	–	–	–	–	–	–	–	–	–	–
CC[C@H](C)[C@H](NC(=O)[C@H](CCCCN)NC(=O)[C@H](CCCCN)NC(=O)[C@H](C)NC(=O)[C@H](CC(C)C)NC(=O)[C@H](C)NC(=O)[C@H](C)NC(=O)[C@H](CC(C)C)NC(=O)[C@H](C)NC(=O)[C@H](CCCCN)NC(=O)[C@H](CCCNC(=N)N)NC(=O)[C@H](CCCNC(=N)N)NC(=O)[C@H](CCCNC(=N)N)NC(=O)[C@H](CS)NC(=O)[C@H](Cc1ccc(O)cc1)NC(=O)[C@H](CC(C)C)NC(=O)[C@@H]1CCCN1C(=O)[C@H](CCCNC(=N)N)NC(=O)[C@H](CCCNC(=N)N)NC(=O)[C@H](CS)NC(=O)[C@H](CCC(N)=O)NC(=O)[C@@H](N)CCC(N)=O)C(=O)N[C@@H](CC(C)C)C(N)=O [F, NCR247C-X2] (H-QQCRRPLYCRRRKALAALAKKIL-NH2; N-terminus assumed)	–	–	–	–	–	–	–	–	–	–	–	–	–	–	–	–	–	–	–	–	Cytotoxicity / viability of A375 cells [10]: no cytotoxicity up to 12.5 μM; also recorded: slight decrease of the viable cell number was observed at 25 μM
CC[C@H](C)[C@H](NC(=O)[C@H](CCCCN)NC(=O)[C@H](CCCCN)NC(=O)[C@H](C)NC(=O)[C@H](CC(C)C)NC(=O)[C@H](C)NC(=O)[C@H](C)NC(=O)[C@H](CC(C)C)NC(=O)[C@H](C)NC(=O)[C@@H](N)CCCCN)C(=O)N[C@@H](CC(C)C)C(N)=O [I, X2] (H-KALAALAKKIL-NH2)	–	–	–	–	–	–	–	–	–	>25 µM	25 µM (≈ 28.5 µg/mL)	25 µM (≈ 28.5 µg/mL)	>25 µM	6.3 µM (≈ 7.17 µg/mL)	>25 µM	25 µM (≈ 28.5 µg/mL)	>25 µM	> 25 µM	25 µM (≈ 28.5 µg/mL)	>25 µM	MBC in Mueller Hinton Broth, panel (A), S. a. (Staphylococcus aureus): > 25 µM; MIC in Mueller Hinton Broth, panel (C), S. a. (Staphylococcus aureus): >25 µM; MBC in Mueller Hinton Broth, panel (B), S. a. (Staphylococcus aureus): >25 µM; MBC in Mueller Hinton Broth, panel (A), E. c. (Escherichia coli): > 25 µM; MIC in Mueller Hinton Broth, panel (C), E. c. (Escherichia coli): >25 µM; MBC in Mueller Hinton Broth, panel (B), E. c. (Escherichia coli): >25 µM
CC[C@H](C)[C@H](NC(=O)[C@H](CCCCN)NC(=O)[C@H](CCCCN)NC(=O)[C@H](C)NC(=O)[C@H](CC(C)C)NC(=O)[C@H](C)NC(=O)[C@H](C)NC(=O)[C@H](CC(C)C)NC(=O)[C@H](C)NC(=O)[C@H](CCCCN)NC(=O)[C@H](CC(C)C)NC(=O)[C@H](CC(N)=O)NC(=O)[C@@H](NC(=O)[C@H](CCCCN)NC(=O)CNC(=O)[C@H](CC(C)C)NC(=O)[C@H](CC(C)C)NC(=O)[C@H](Cc1ccc(O)cc1)NC(=O)CNC(=O)[C@H](C)NC(=O)[C@H](CO)NC(=O)[C@H](CC(N)=O)NC(=O)[C@H](CC(C)C)NC(=O)[C@@H](NC(=O)[C@H](Cc1c[nH]c2ccccc12)NC(=O)CN)[C@@H](C)O)[C@@H](C)CC)C(=O)N[C@@H](CC(C)C)C(N)=O [J, Transportan, reference compound]	–	–	–	–	–	–	–	–	–	1.6 µM (≈ 4.54 µg/mL)	3.1 µM (≈ 8.81 µg/mL)	1.6 µM (≈ 4.54 µg/mL)	3.1 µM (≈ 8.81 µg/mL)	3.1 µM (≈ 8.81 µg/mL)	3.1 µM (≈ 8.81 µg/mL)	3.1 µM (≈ 8.81 µg/mL)	3.1 µM (≈ 8.81 µg/mL)	3.1 µM (≈ 8.81 µg/mL)	3.1 µM (≈ 8.81 µg/mL)	3.1 µM (≈ 8.81 µg/mL)	MBC in Mueller Hinton Broth, panel (A), S. a. (Staphylococcus aureus): 6.3 µM (≈ 17.9 µg/mL); MIC in Mueller Hinton Broth, panel (C), S. a. (Staphylococcus aureus): 3.1 µM (≈ 8.81 µg/mL); MBC in Mueller Hinton Broth, panel (B), S. a. (Staphylococcus aureus): 3.1 µM (≈ 8.81 µg/mL); MBC in Mueller Hinton Broth, panel (A), E. c. (Escherichia coli): 6.3 µM (≈ 17.9 µg/mL); MIC in Mueller Hinton Broth, panel (C), E. c. (Escherichia coli): 3.1 µM (≈ 8.81 µg/mL); MBC in Mueller Hinton Broth, panel (B), E. c. (Escherichia coli): 6.3 µM (≈ 17.9 µg/mL)
C[C@H]1COc2c(N3CCN(C)CC3)c(F)cc3c(=O)c(C(=O)O)cn1c23 [Lvx, levofloxacin, reference compound]	1.25 to 320 µM	1.3 µM (≈ 0.47 µg/mL)	2.5 µM (≈ 0.903 µg/mL)	20 µM (≈ 7.23 µg/mL)	160 µM (≈ 57.8 µg/mL)	1.3 µM (≈ 0.47 µg/mL)	320 µM (≈ 116 µg/mL)	320 µM (≈ 116 µg/mL)	5 µM (≈ 1.81 µg/mL)	–	–	–	–	–	–	–	–	–	–	–	–
RNGCIVDPRCPY [N-terminal part, 12 amino acid long N-terminal half of NCR247]	–	–	–	–	–	–	–	–	–	–	–	–	–	–	–	–	–	–	–	–	Antimicrobial activity on the tested bacteria ([1]; PPB, peptides tested up to 25 μM): inactive
